Data: article doi:10.1101/2021.09.30.462449v1 (biorxiv, 2021)

Tests used:
Assay in all cases: biochemical
Conditions in all cases: read-out: % inhibition mean (Lanthascreen)
RET V804M = RET V804M (Homo sapiens, UniProt P07949, V804M)
NEK8 = NEK8 (Homo sapiens, UniProt Q86SG6)
WNK3 = WNK3 (Homo sapiens, UniProt Q9BYP7)
MAP3K2 (MEKK2) = MAP3K2 (MEKK2) (Homo sapiens, UniProt Q9Y2U5)
PKMYT1 = PKMYT1 (Homo sapiens, UniProt Q99640)
[1] = molecular target: MAP2K6 (MKK6) S207E T211E (Homo sapiens, UniProt P52564, S207E/T211E)
ERN2 = ERN2 (Homo sapiens, UniProt Q76MJ5)
TEK (TIE2) Y1108F = TEK (TIE2) Y1108F (Homo sapiens, UniProt Q02763, Y1108F)
LATS2 = LATS2 (Homo sapiens, UniProt Q9NRM7)
BMPR1B (ALK6) = BMPR1B (ALK6) (Homo sapiens, UniProt O00238)
TESK2 = TESK2 (Homo sapiens, UniProt Q96S53)
MAP2K4 (MEK4) = MAP2K4 (MEK4) (Homo sapiens, UniProt P45985)
AMPK (A1/B1/G3) = AMPK (A1/B1/G3) (Homo sapiens, UniProt Q13131)
CAMKK2 (CaMKK beta) = CAMKK2 (CaMKK beta) (Homo sapiens, UniProt Q96RR4)
TLK2 = TLK2 (Homo sapiens, UniProt Q86UE8)
ERN1 = ERN1 (Homo sapiens, UniProt O75460)
CAMK2G (CaMKII gamma) = CAMK2G (CaMKII gamma) (Homo sapiens, UniProt Q13555)
CAMK2G (CaMKII gamma), sequence (Q13555 whole entry): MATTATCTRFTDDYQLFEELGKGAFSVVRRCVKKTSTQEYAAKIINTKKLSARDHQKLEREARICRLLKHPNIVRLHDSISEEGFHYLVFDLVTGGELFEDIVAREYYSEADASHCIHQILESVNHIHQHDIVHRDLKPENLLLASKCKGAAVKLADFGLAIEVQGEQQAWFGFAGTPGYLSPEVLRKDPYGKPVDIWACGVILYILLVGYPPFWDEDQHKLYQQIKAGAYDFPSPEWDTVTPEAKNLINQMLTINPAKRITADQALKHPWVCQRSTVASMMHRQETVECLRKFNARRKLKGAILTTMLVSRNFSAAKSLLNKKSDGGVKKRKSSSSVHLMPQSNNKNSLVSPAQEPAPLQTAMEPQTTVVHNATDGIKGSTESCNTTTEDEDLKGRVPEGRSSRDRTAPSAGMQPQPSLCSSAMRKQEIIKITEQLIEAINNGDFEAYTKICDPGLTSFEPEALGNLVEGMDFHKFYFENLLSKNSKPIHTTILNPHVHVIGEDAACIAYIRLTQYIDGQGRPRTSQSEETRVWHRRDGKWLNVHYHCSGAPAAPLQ

CDK3/cyclin E1 = CDK3/cyclin E1 (Homo sapiens, UniProt Q00526)
RAF1 (cRAF) Y340D Y341D = RAF1 (cRAF) Y340D Y341D (Homo sapiens, UniProt P04049, Y340D/Y341D)
ADCK3 = ADCK3 (Homo sapiens, UniProt Q8NI60)
CDK9 (Inactive) = CDK9 (Inactive) (Homo sapiens, UniProt P50750)
TNIK = TNIK (Homo sapiens, UniProt Q9UKE5)
TNIK, sequence (Q9UKE5 whole entry): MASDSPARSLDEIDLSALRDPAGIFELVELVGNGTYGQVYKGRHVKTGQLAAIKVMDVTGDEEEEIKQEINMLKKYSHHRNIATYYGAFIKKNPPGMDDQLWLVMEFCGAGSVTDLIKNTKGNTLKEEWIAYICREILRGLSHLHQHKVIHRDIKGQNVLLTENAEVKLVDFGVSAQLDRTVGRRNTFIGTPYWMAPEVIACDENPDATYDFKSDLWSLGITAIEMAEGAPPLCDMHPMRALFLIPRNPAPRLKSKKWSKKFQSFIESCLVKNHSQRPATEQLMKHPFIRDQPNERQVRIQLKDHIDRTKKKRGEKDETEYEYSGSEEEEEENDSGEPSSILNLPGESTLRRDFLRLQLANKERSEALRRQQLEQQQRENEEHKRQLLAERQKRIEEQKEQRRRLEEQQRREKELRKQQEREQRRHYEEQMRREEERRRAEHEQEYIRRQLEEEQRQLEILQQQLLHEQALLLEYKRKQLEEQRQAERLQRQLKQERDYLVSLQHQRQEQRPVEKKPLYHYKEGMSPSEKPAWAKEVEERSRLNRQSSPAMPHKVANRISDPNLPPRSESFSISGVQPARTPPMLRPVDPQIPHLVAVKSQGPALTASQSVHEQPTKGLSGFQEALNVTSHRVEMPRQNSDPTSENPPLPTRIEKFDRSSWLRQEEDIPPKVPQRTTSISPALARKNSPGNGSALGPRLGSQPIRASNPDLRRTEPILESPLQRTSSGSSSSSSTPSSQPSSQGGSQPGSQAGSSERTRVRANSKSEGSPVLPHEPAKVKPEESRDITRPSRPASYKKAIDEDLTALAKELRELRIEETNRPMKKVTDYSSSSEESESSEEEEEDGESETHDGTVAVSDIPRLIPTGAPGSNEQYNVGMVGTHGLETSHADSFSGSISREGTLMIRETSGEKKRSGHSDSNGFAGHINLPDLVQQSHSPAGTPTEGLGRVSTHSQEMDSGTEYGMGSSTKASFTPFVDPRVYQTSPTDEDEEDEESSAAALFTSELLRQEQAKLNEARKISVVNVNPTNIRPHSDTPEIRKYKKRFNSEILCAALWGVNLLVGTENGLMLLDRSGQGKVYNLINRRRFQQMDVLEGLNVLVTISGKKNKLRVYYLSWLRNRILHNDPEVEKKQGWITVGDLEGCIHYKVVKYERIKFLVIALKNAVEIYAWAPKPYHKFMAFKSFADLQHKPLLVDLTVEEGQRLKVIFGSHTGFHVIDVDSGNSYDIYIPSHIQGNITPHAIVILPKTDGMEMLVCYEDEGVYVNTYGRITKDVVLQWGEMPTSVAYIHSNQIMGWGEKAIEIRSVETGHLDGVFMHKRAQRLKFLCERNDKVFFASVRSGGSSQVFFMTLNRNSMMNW

MYLK (MLCK) = MYLK (MLCK) (Homo sapiens, UniProt Q15746)
MAP2K6 (MKK6) = MAP2K6 (MKK6) (Homo sapiens, UniProt P52564)
GAK = GAK (Homo sapiens, UniProt O14976)
AMPK (A2/B2/G1) = AMPK (A2/B2/G1) (Homo sapiens, UniProt P54646)
AMPK (A2/B2/G1), sequence (P54646 whole entry): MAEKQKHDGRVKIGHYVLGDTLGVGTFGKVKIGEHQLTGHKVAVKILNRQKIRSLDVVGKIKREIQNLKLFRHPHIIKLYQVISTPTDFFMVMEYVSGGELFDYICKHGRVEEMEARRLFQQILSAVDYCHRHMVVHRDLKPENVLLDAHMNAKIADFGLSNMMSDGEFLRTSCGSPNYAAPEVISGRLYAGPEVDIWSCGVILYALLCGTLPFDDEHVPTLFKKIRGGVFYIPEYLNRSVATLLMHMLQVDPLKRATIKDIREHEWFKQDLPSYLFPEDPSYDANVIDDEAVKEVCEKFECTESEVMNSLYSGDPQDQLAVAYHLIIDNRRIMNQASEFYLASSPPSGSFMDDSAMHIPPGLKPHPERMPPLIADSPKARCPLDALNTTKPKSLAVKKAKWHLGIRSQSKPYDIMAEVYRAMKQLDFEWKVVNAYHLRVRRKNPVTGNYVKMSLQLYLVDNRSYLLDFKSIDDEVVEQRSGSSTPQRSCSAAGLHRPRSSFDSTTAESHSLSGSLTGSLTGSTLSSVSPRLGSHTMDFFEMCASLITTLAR
AMPK (A2/B2/G1), sequence (O43741 whole entry partner): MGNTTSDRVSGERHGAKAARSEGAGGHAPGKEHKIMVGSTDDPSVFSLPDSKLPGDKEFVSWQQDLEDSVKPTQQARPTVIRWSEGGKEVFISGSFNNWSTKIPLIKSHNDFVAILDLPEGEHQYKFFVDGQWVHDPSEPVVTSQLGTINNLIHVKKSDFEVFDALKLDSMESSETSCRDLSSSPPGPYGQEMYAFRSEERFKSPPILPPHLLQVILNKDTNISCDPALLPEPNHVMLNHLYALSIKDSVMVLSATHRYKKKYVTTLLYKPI
AMPK (A2/B2/G1), sequence (P54619 whole entry partner): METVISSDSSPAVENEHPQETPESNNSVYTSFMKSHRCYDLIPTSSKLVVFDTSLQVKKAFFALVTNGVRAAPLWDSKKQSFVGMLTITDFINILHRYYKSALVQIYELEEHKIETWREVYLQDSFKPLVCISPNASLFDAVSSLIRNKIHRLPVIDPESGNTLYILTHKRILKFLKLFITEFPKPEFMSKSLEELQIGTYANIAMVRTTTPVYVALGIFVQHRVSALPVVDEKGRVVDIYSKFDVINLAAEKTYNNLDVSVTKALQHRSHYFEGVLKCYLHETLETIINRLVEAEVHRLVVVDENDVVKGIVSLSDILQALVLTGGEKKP

MAP4K3 (GLK) = MAP4K3 (GLK) (Homo sapiens, UniProt Q8IVH8)
PRKACG (PRKAC gamma) = PRKACG (PRKAC gamma) (Homo sapiens, UniProt P22612)
PRKACG (PRKAC gamma), sequence (P22612 whole entry): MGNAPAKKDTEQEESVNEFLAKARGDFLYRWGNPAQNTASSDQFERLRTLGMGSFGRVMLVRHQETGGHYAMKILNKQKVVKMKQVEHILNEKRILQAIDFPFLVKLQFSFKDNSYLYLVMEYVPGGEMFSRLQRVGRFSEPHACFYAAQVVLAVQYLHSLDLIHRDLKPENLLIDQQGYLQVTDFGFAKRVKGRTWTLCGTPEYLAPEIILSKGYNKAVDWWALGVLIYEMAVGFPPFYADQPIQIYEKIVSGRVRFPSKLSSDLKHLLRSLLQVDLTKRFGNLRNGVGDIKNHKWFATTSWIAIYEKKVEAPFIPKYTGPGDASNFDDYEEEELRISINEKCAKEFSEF

MAP3K2 (MEKK2), sequence (Q9Y2U5 whole entry): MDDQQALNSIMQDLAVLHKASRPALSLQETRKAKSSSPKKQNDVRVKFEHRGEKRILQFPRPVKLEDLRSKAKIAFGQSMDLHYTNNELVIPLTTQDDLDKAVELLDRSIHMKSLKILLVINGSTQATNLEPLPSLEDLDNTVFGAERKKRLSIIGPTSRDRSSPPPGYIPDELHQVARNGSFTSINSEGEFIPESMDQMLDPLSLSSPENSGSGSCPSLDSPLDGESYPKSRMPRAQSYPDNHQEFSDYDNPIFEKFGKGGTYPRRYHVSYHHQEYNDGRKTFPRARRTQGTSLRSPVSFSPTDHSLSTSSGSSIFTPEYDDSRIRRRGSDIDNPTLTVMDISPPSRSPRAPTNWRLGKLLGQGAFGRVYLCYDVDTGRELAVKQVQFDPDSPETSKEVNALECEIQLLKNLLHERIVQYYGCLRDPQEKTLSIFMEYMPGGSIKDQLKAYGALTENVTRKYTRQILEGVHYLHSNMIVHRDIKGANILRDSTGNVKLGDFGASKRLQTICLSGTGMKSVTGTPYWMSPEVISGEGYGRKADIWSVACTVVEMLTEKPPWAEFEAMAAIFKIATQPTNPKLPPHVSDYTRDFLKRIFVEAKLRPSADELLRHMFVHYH
NEK8, sequence (Q86SG6 whole entry): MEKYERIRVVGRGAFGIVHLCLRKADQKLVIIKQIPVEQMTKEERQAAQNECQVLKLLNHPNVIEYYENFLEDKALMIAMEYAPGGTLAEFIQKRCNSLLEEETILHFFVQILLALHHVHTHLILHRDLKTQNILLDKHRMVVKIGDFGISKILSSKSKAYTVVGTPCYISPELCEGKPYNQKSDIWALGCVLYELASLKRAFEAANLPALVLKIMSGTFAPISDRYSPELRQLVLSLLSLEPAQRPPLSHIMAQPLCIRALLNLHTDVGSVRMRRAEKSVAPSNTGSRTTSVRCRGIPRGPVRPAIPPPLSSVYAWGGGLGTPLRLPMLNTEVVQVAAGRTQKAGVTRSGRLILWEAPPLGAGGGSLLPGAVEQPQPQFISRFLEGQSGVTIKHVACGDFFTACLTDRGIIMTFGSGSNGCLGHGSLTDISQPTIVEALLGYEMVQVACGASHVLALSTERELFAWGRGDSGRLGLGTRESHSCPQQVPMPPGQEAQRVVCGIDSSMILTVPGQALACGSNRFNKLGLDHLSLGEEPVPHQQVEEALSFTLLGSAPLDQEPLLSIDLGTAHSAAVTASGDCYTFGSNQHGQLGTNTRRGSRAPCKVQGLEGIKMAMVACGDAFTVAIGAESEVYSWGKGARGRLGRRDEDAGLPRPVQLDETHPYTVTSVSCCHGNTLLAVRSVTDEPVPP

## COc1ccc2nc3cc(Cl)ccc3c(Nc3cc(CN4CCCC4)c(O)c(CN4CCCC4)c3)c2n1 [Pyronaridine, 4-[(7-Chloro-2-methoxybenzo[b][1,5]naphthyridin-10-yl)amino]-2,6-bis(1-pyrrolidinylmethyl)phenol phosphate (1:4)]
RET V804M
  inhibition at 1 µM: -1%
NEK8
  inhibition at 1 µM: 0%
WNK3
  inhibition at 1 µM: 7%
MAP3K2 (MEKK2)
  inhibition at 1 µM: 7%
PKMYT1
  inhibition at 1 µM: 1%
[1]
  inhibition at 1 µM: 10%
ERN2
  inhibition at 1 µM: 6%
TEK (TIE2) Y1108F
  inhibition at 1 µM: -2%
LATS2
  inhibition at 1 µM: -4%
BMPR1B (ALK6)
  inhibition at 1 µM: -3%
TESK2
  inhibition at 1 µM: -3%
MAP2K4 (MEK4)
  inhibition at 1 µM: 1%
AMPK (A1/B1/G3)
  inhibition at 1 µM: -1%
CAMKK2 (CaMKK beta)
  inhibition at 1 µM: -1%
TLK2
  inhibition at 1 µM: -2%
ERN1
  inhibition at 1 µM: 6%
CAMK2G (CaMKII gamma)
  inhibition at 1 µM: -1%
CDK3/cyclin E1
  inhibition at 1 µM: 3%
RAF1 (cRAF) Y340D Y341D
  inhibition at 1 µM: -5%
ADCK3
  inhibition at 1 µM: -16%
CDK9 (Inactive)
  inhibition at 1 µM: -10%
TNIK
  inhibition at 1 µM: -1%
MYLK (MLCK)
  inhibition at 1 µM: 4%
MAP2K6 (MKK6)
  inhibition at 1 µM: 9%
GAK
  inhibition at 1 µM: 28%
AMPK (A2/B2/G1)
  inhibition at 1 µM: 6%
MAP4K3 (GLK)
  inhibition at 1 µM: 1%
PRKACG (PRKAC gamma)
  inhibition at 1 µM: 2%
